# Results as given in patent US9714252B2, “Cyclic sulfonamides as sodium channel blockers” (priority 2012, dated 2017).
# Target: human Nav1.7 (Homo sapiens (Human), UniProt Q15858)
# Test: FLIPR sodium dye assay (CoroNa Green) with KCl and test article pre-incubation, recombinant Nav1.7/HEK293 cells
# Type: cell-based
# Settings: not given
# human Nav1.7, sequence (Q15858 with tags, fused parts or gaps limits assumed): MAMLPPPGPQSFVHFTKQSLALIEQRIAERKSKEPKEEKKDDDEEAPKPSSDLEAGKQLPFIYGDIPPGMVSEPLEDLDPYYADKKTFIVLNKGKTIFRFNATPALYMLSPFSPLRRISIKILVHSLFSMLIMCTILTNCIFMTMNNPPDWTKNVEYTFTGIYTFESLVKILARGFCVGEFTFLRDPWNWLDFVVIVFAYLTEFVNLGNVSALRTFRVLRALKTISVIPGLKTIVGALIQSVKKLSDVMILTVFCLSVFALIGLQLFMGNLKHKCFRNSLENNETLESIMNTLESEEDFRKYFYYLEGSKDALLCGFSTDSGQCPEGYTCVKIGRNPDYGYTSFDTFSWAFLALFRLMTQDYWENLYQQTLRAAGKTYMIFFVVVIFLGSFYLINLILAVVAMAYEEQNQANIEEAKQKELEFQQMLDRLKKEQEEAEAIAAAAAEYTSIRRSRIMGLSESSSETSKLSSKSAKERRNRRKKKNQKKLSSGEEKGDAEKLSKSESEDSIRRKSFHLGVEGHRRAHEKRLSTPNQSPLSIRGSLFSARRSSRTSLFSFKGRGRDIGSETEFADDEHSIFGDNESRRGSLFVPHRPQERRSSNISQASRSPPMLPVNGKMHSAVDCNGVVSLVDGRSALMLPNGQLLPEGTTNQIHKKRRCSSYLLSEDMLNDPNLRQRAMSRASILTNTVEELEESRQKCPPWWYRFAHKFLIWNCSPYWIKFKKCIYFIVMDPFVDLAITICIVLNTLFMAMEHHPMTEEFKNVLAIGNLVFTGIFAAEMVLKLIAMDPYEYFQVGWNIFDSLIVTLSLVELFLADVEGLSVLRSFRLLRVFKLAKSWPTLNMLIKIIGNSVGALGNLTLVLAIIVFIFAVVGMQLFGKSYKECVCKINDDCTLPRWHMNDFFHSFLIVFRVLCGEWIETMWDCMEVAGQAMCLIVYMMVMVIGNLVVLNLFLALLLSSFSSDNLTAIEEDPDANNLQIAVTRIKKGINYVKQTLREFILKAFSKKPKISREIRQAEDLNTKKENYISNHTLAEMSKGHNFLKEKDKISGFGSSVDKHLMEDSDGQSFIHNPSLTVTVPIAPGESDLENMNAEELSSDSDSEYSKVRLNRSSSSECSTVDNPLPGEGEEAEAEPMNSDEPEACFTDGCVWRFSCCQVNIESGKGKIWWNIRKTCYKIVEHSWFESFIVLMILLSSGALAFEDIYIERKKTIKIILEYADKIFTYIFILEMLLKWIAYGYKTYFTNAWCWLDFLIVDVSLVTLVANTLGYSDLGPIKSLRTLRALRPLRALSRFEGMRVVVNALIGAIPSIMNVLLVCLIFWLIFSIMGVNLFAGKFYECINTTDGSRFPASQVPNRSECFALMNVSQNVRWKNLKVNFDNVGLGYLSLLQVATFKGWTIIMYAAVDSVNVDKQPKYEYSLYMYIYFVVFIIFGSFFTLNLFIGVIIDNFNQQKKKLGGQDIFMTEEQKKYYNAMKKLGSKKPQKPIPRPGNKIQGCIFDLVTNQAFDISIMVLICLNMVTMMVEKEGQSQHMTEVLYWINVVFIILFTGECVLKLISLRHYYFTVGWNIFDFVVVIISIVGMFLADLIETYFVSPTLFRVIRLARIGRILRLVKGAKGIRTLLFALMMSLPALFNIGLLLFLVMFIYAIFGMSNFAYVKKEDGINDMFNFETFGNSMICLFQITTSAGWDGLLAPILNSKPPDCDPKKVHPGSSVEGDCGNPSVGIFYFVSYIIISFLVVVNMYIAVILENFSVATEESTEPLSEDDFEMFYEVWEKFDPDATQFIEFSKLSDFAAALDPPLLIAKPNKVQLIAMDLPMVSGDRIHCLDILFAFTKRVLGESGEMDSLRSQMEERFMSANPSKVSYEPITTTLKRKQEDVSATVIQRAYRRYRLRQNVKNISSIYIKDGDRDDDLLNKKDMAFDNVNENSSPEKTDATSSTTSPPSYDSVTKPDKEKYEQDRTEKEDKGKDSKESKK
row,Compound,IC50 [nM]
1,"O=S1(=O)c2ccc(N3CCC4(CC3)OCc3ccccc34)cc2CCN1c1nccs1 [Compound 5, 6-(3H-spiro[isobenzofuran-1,4′-piperidin]-1′-yl)-2-(thiazol-2-yl)-3,4-dihydro-2H-benzo[e][1,2]thiazine 1,1-dioxide]",766
2,"O=S1(=O)c2ccc(Oc3ccccc3-c3ccccc3)cc2CCN1c1nccs1 [Compound 6, 6-([1,1′-biphenyl]-2-yloxy)-2-(thiazol-2-yl)-3,4-dihydro-2H-benzo[e][1,2]thiazine 1,1-dioxide]",1700

# Same assay, conditions: recombinant human Nav1.7 in HEK293; veratridine + scorpion venom stimulation
row,Compound,IC50 [nM]
1,"O=S1(=O)c2ccc(Oc3ccc(C(F)(F)F)cc3-c3ccnnc3)cc2CN1c1nccs1 [Compound 1, 5-(2-(pyridazin-4-yl)-4-(trifluoromethyl)phenoxy)-2-(thiazol-2-yl)-2,3-dihydrobenzo[d]isothiazole 1,1-dioxide]",1740
2,"O=S1(=O)c2ccc(Oc3ccccc3-c3ccccc3)cc2CN1c1nccs1 [Compound 2, 5-([1,1′-biphenyl]-2-yloxy)-2-(thiazol-2-yl)-2,3-dihydrobenzo[d]isothiazole 1,1-dioxide]",> 20000
3,"Cn1nccc1-c1cc(Cl)ccc1Oc1ccc2c(c1)CN(c1nccs1)S2(=O)=O [Compound 3, 5-(4-chloro-2-(1-methyl-1H-pyrazol-5-yl)phenoxy)-2-(thiazol-2-yl)-2,3-dihydrobenzo[d]isothiazole 1,1-dioxide]",9100
4,"O=S1(=O)c2ccc(N3CCC4(CC3)OCc3ccccc34)cc2CN1c1nccs1 [Compound 4, 5-(3H-spiro[isobenzofuran-1,4′-piperidin]-1′-yl)-2-(thiazol-2-yl)-2,3-dihydrobenzo[d]isothiazole 1,1-dioxide]",1380
5,"O=S1(=O)c2ccc(-c3ccc(Oc4ccc(C(F)(F)F)cc4)cc3)cc2CCN1c1nccs1 [Compound 7, 2-(thiazol-2-yl)-6-(4-(4-(trifluoromethyl)phenoxy)phenyl)-3,4-dihydro-2H-benzo[e][1,2]thiazine 1,1-dioxide]",7090
